In paper PMC6030077, “Dual role of HDAC10 in lysosomal exocytosis and DNA repair promotes neuroblastoma chemoresistance” (Scientific Reports, 2018):

Assays:
BE(2)-C cells [1] = assay: Flow cytometric analysis of LysoTracker DND-99 staining (lysosomal accumulation); format: cell-based, human; settings: 24 h
Procedure: Six days after siRNA transfection or 24 h after treatment with HDAC or lysosomal inhibitors, cells were stained for 1 h with 50 nM LysoTracker® Red DND-99 in medium under standard cell culture conditions. Cells were washed with ice-cold RPMI w/o phenol-red and detached using Trypsin/EDTA for 3 minutes at 37 °C. Cells were centrifuged, resuspended in RPMI w/o phenol red and LysoTracker® Red fluorescence was quantified on a BD FACSCanto II platform using the PE filter setting.

BE(2)-C cells [2] = assay: Flow cytometric quantification of intracellular doxorubicin accumulation, BE(2)-C; format: cell-based, human
Procedure: (§1) For flow cytometric quantification of intracellular doxorubicin after HDAC6/10 inhibition, BE(2)-C, SK-N-AS, IMR-32, HAP1 wild type and HDAC10 knockout cells were seeded in 6-well dishes at a density of 1.5 ∗ 10^5 cells/well (BE(2)-C and SK-N-AS, HAP1) and 3 ∗ 10^5 cells/well (IMR-32). Cells were treated with 25 ng/ml, 50 ng/ml, 100 ng/ml or 1 µg/ml doxorubicin, respectively, for 3–48 h (see respective figure legend). Where indicated, cells were co-treated with HDAC6/10 or lysosomal inhibitors. In case of co-treatment with vacuolin-1, vacuolin-1 was directly added to cells under doxorubicin treatment 1 h or 24 h prior to analysis. Flow cytometric quantification of intracellular doxorubicin after HDAC6, HDAC10 or P-glycoprotein knockdown in BE(2)-C cells was performed 5 days (P-glycoprotein) or 6 days (HDAC6/10) after transfection with siRNA. To that end, cells were seeded 3–4 days after transfection into 6-well dishes at 1.5 ∗ 10^5 cells per well and treated with 100 ng/ml doxorubicin +/− HDAC6/10 and lysosomal inhibitors for the last 24 h. After doxorubicin treatment, BE(2)-C, SK-N-AS, IMR-32 and HAP1 cells were washed with ice-cold RPMI w/o phenol-red and detached using Trypsin/EDTA for 3 minutes at 37 °C. Cells were centrifuged, resuspended in RPMI w/o phenol red and doxorubicin fluorescence was quantified on a BD FACSCanto II platform using the PE filter setting.

SK-N-AS cells = assay: Flow cytometric quantification of intracellular doxorubicin accumulation, SK-N-AS; format: cell-based, human; settings: 100 ng/ml doxorubicin +/− 7.5 µM tubastatin A, 48 h
Procedure: as §1

[3] = system: proliferating human fibroblasts; assay: Flow cytometric analysis of cellular doxorubicin fluorescence, fibroblasts; format: cell-based; settings: 100 ng/ml doxorubicin 48 h; tubastatin A 7.5 µM, vacuolin-1 10 µM, verapamil 10 µM
BE(2)-C cells [4] = assay: Confocal fluorescence microscopy of doxorubicin-loaded damaged nuclei; format: cell-based, human; settings: 250 ng/ml doxorubicin + 7.5 µM tubastatin A, 24 h
Procedure: BE(2)-C cells were seeded at a density of 2 ∗ 10^4 cells per well into an ibidi 8-well µ-slide one day before treatment. For analysis of doxorubicin uptake, cells were treated with 250 ng/ml doxorubicin +/− HDAC6/10 or lysosomal inhibitors for 24 h. The next day, cells were washed in PBS, fixed for 20 minutes using 4% PFA at room temperature, washed twice with PBS and counterstained with DAPI (4′,6-Diamidino-2-phenylindole). In case of LysoTracker® Red staining, cells were treated for 24 h with HDAC6/10 inhibitors. One hour before fixation, LysoTracker® Red was added at a final concentration of 50 nM and cells were stained for 1 h under standard cell culture conditions. Cells were washed as described, fixed for 15 minutes using 4% PFA at room temperature and counterstained as described above. […] Cells were fixed for 15 minutes using 4% PFA, permeabilized for 30 minutes with 0.2% Triton X-100 and blocked in 0.05% Triton X-100 and 3% BSA in PBS for 1 h at room temperature. Cells were stained with Phospho-Histone H2A.X (S139) primary antibody (CST #9718) over night (4 °C) and for 2 h with Alexa-488-labeled secondary antibody (ThermoFisher A-11008) at room temperature. Nuclei were counterstained with DAPI. Images were acquired on a Zeiss LSM710 (Oberkochen, Germany) laser scanning confocal microscope using the 40× objective.

BE(2)-C cells [5] = assay: Pulse-chase analysis of doxorubicin secretion/retention; format: cell-based, human; settings: 12 h pre-treatment, 1 µg/ml doxorubicin 3 h, washout, relative to t0
Procedure: To test whether HDAC10 inhibition prolonged the retention of doxorubicin, we used a pulse-chase approach in which BE(2)-C cells were pre-treated over night with HDAC6/10 inhibitors and then loaded with high concentrations of doxorubicin for 3 h (1 µg/ml). After doxorubicin washout, HDAC6/10 or HDAC6 inhibitors were re-added (t0), and intracellular doxorubicin fluorescence was measured at t0, as well as 3 h (t3h) and 6 h (t6h) after doxorubicin removal (Fig. 5h–k). […] In summary, secretion of doxorubicin was slowed down in case of HDAC6/10 inhibition but not by specific HDAC6 inhibition alone.
as §1

CN1CCc2c(c3ccccc3n2Cc2ccc(C(=O)NO)cc2)C1 [tubastatin A]
lysosomal accumulation (LysoTracker staining) (BE(2)-C cells [1]; bufexamac 30 µM, tubastatin A 7.5 µM, tubacin 7.5 µM, VPA 1 mM, vacuolin-1 10 µM): caused lysosomal accumulation
lysosomal accumulation on combination with vacuolin-1 compared to vacuolin-1 alone (BE(2)-C cells [1]; tubastatin A 7.5 µM + vacuolin-1 10 µM): no additional lysosomal accumulation
intracellular doxorubicin after co-treatment (BE(2)-C cells [2]; 100 ng/ml doxorubicin, 48 h, bufexamac 30 µM, tubastatin A 7.5 µM, tubacin 7.5 µM): increased intracellular doxorubicin
intracellular doxorubicin levels, short-term (BE(2)-C cells [2]; 12 h pre-treatment with inhibitor, then 1 µg/ml doxorubicin for 3 h): increased intracellular doxorubicin levels
doxorubicin accumulation, SK-N-AS (SK-N-AS cells): increased accumulation of doxorubicin
intracellular doxorubicin in fibroblasts [3]: did not exhibit strongly increased intracellular doxorubicin
dying cells with highly condensed chromatin, combination with doxorubicin compared to doxorubicin alone (BE(2)-C cells [4]): increased the number of dying cells
retention of intracellular doxorubicin 3 h and 6 h after doxorubicin removal (BE(2)-C cells [5]): retained higher levels of intracellular doxorubicin
